According to PubChem BioAssay AID330 (DTP/NCI, 2004):
Several values for one entry are separate records, joined by “and”; a condition that tells them apart may be missing. Equal entries are not always repeated. Inconclusive results and toxic doses are left out.

Tested on: P388 leukemia ip, CD2F1 mice, survival T/C
Assay: NCI In Vivo Anticancer Drug Screen. Data for tumor model P388 Leukemia (intraperitoneal) in CD2F1 (CDF1) mice
Details: endpoint: median survival time, higher = longer survival
Method in brief: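 Mice carrying the transplanted tumor received test compound or vehicle. Survival was recorded in each group, and the value is the treated-group measurement divided by that of the vehicle-treated control group.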

[1] = dose: 50.0 mg/kg/injection, schedule: Q01DX009 (ip), vehicle: saline
[2] = dose: 200.0 mg/kg/injection, schedule: Q01DX009 (ip), vehicle: saline
[3] = dose: 50.0 mg/kg/injection, schedule: Q01DX009 (ip), vehicle: Klucel (hydroxypropylcellulose) (HPC)
[4] = dose: 100.0 mg/kg/injection, schedule: Q01DX009 (ip), vehicle: Klucel (hydroxypropylcellulose) (HPC)
[5] = dose: 200.0 mg/kg/injection, schedule: Q01DX009 (ip), vehicle: Klucel (hydroxypropylcellulose) (HPC)
[6] = dose: 50.0 mg/kg/injection, schedule: Q01DX005 (ip), vehicle: saline with Tween-80
[7] = dose: 100.0 mg/kg/injection, schedule: Q01DX005 (ip), vehicle: saline with Tween-80

Q: What does the source list for `C=C(CC(=O)Nc1nc(C)c(C(=O)OC)s1)C(=O)O`?
A: T/C (dose: 12.5 mg/kg/injection, schedule: Q01DX009 (ip), vehicle: saline with Tween-80): 107 % of control; T/C (dose: 25.0 mg/kg/injection, schedule: Q01DX009 (ip), vehicle: saline with Tween-80): 100 % of control; T/C (dose: 50.0 mg/kg/injection, schedule: Q01DX009 (ip), vehicle: saline with Tween-80): 105 % of control; T/C [1]: 99 % of control; T/C [2]: 96 % of control

Q: For `CSc1nc(N)c(C(=O)Nc2ccccc2)s1`, which T/C [3] is on record?
A: 103 % of control

Q: What about the T/C [4] of the same compound?
A: 101 % of control

Q: And the T/C [5]?
A: 100 % of control

Q: Which T/C (dose: 60.0 mg/kg/injection, schedule: Q01DX005 (ip), vehicle: Klucel + Tween-80) does the source give for `CC(C)(C)C(=O)CC(=O)C(F)(F)C(F)(F)C(F)(F)F.CC(C)(C)C(=O)CC(=O)C(F)(F)C(F)(F)C(F)(F)F.CC(C)(C)C(=O)CC(=O)C(F)(F)C(F)(F)C(F)(F)F.[Eu]` here?
A: 99 % of control

Q: And the T/C (dose: 120.0 mg/kg/injection, schedule: Q01DX005 (ip), vehicle: Klucel + Tween-80)?
A: 98 % of control

Q: What about the T/C (dose: 240.0 mg/kg/injection, schedule: Q01DX005 (ip), vehicle: Klucel + Tween-80) of the same compound?
A: 98 % of control

Q: Which T/C (dose: 60.0 mg/kg/injection, schedule: Q01DX005 (ip), vehicle: saline) does the source give for `COC(=O)C1(C(=O)OC)ON1C(C)C` (stereo not given) here?
A: 98 % of control

Q: What about the T/C (dose: 120.0 mg/kg/injection, schedule: Q01DX005 (ip), vehicle: saline) of the same compound?
A: 94 % of control

Q: What about the T/C (dose: 240.0 mg/kg/injection, schedule: Q01DX005 (ip), vehicle: saline) of the same compound?
A: 116 % of control

Q: How did the T/C [3] turn out when `O=C(C(Br)(Br)Br)C(Br)(Br)c1ccccc1` was run?
A: 101 % of control

Q: And the T/C [4]?
A: 101 % of control

Q: And the T/C [5]?
A: 99 % of control

Q: How did the T/C [1] turn out when `O=c1c2cc(OCO)ccc2[nH]c2cc3c(=O)c4cc(OCO)ccc4[nH]c3cc12` was run?
A: 102 % of control

Q: And the T/C (dose: 100.0 mg/kg/injection, schedule: Q01DX009 (ip), vehicle: saline)?
A: 99 % of control

Q: And the T/C [2]?
A: 93 % of control

Q: Which T/C [6] does the source give for `NC(N)=NCCCSC(=O)C1CCCCC1` here?
A: 105 % of control

Q: What about the T/C [7] of the same compound?
A: 107 % of control

Q: With `CN(C)c1ccc(C=NCCCN=Cc2ccc(N(C)C)cc2)cc1` as the compound, how does the T/C (dose: 100.0 mg/kg/injection, schedule: Q01DX009 (ip), vehicle: saline with Tween-80) read?
A: 104 % of control

Q: Which T/C (dose: 60.0 mg/kg/injection, schedule: Q01DX005 (ip), vehicle: Klucel (hydroxypropylcellulose) (HPC)) does the source give for `COc1ccccc1N=Nc1c(-c2cccs2)nn(C(N)=S)c1C(F)(F)F` here?
A: 99 % of control

Q: What about the T/C (dose: 120.0 mg/kg/injection, schedule: Q01DX005 (ip), vehicle: Klucel (hydroxypropylcellulose) (HPC)) of the same compound?
A: 97 % of control

Q: What about the T/C (dose: 240.0 mg/kg/injection, schedule: Q01DX005 (ip), vehicle: Klucel (hydroxypropylcellulose) (HPC)) of the same compound?
A: 89 % of control

Q: For `CNC(=O)SCCC(=O)OC`, which T/C [6] is on record?
A: 98 % of control

Q: And the T/C [7]?
A: 100 % of control

Q: What about the T/C (dose: 200.0 mg/kg/injection, schedule: Q01DX005 (ip), vehicle: saline with Tween-80) of the same compound?
A: 100 % of control

Q: `CCC1(C)N=C(N)Nc2nc3cc(C)c(C)cc3n21` (stereo not given) was tested. Which T/C (dose: 12.5 mg/kg/injection, schedule: Q01DX009 (ip), vehicle: saline) did it give?
A: 92 % of control

Q: And the T/C (dose: 25.0 mg/kg/injection, schedule: Q01DX009 (ip), vehicle: saline)?
A: 91 % of control

Q: What about the T/C [1] of the same compound?
A: 92 % of control and 94 % of control

Q: With `c1ccc(CN2CCCC3CCCC32)cc1` (stereo not given) as the compound, how does the T/C (dose: 100.0 mg/kg/injection, schedule: Q01DX001 (ip), vehicle: saline with Tween-80) read?
A: 97 % of control

Q: What does the source list for `COc1ccc(CS(=O)(=O)c2cnc(N/N=C/c3ccc([N+](=O)[O-])o3)nc2N)c(OC)c1`?
A: T/C (dose: 100.0 mg/kg/injection, schedule: Q01DX001 (ip), vehicle: saline): 94 % of control; T/C (dose: 200.0 mg/kg/injection, schedule: Q01DX001 (ip), vehicle: saline): 94 % of control; T/C (dose: 400.0 mg/kg/injection, schedule: Q01DX001 (ip), vehicle: saline): 92 % of control

Q: How did the T/C (dose: 0.78 mg/kg/injection, schedule: Q01DX009 (ip), vehicle: saline with Tween-80) turn out when `CNC(=O)O/N=C(\CN=[N+]=[N-])C(C)(C)C` was run?
A: 93 % of control

Q: How did the T/C (dose: 1.5 mg/kg/injection, schedule: Q01DX005 (ip), vehicle: saline with Tween-80) turn out when `N#CN(Cc1ccccc1)C(c1ccccc1)(c1ccccc1)c1ccccc1.[Br][Sn]([c]1ccccc1)([c]1ccccc1)[c]1ccccc1` was run?
A: 98 % of control

Q: What about the T/C (dose: 3.0 mg/kg/injection, schedule: Q01DX005 (ip), vehicle: saline with Tween-80) of the same compound?
A: 100 % of control

Q: What about the T/C (dose: 6.0 mg/kg/injection, schedule: Q01DX005 (ip), vehicle: saline with Tween-80) of the same compound?
A: 101 % of control

Q: What about the T/C (dose: 6.25 mg/kg/injection, schedule: Q01DX005 (ip), vehicle: saline with Tween-80) of the same compound?
A: 94 % of control

Q: What does the source list for `Cc1cc(N(CCOS(C)(=O)=O)CCOS(C)(=O)=O)ccc1C=Nc1ccc(-c2csc(-c3ccccc3)n2)c(Cl)c1`?
A: T/C (dose: 6.25 mg/kg/injection, schedule: Q01DX009 (ip), vehicle: Klucel (hydroxypropylcellulose) (HPC)): 110 % of control; T/C (dose: 12.5 mg/kg/injection, schedule: Q01DX009 (ip), vehicle: Klucel (hydroxypropylcellulose) (HPC)): 122 % of control; T/C [4]: 98 % of control and 87 % of control

Q: `CCn1c(=O)c2[nH]c(Br)nc2n(C2CC2)c1=O` was tested. Which T/C [3] did it give?
A: 104 % of control

Q: What about the T/C [4] of the same compound?
A: 106 % of control

Q: With `C1[Se]CC12C[Se]C2` as the compound, how does the T/C (dose: 20.0 mg/kg/injection, schedule: Q01DX009 (ip), vehicle: saline with Tween-80) read?
A: 105 % of control

Q: What does the source list for `COc1cc2c(c(OC)c1OC)-c1cc3c(cc1CC(COC(C)=O)C(COC(C)=O)C2)OCO3` (stereo not given)?
A: T/C (dose: 6.25 mg/kg/injection, schedule: Q04DX002 (ip), vehicle: saline with Tween-80): 103 % of control; T/C (dose: 12.5 mg/kg/injection, schedule: Q04DX002 (ip), vehicle: saline with Tween-80): 101 % of control; T/C (dose: 25.0 mg/kg/injection, schedule: Q04DX002 (ip), vehicle: saline with Tween-80): 100 % of control
